Assay results as given in ChEMBL document CHEMBL1129473, “Slow-binding inhibition of gamma-aminobutyric acid aminotransferase by hydrazine analogues” (J Med Chem, 1996).
Structures can show the parent of a compound that is named as a salt. Blank lines part the entries; values can stand above or below the compound they belong to.

Assays:
[1] = target: T1, 4-aminobutyrate aminotransferase, mitochondrial (Sus scrofa, UniProt P80147); experiment: The Dissociation Constant for Gamma-amino-N-butyrate transaminase
T1 sequence (P80147 whole entry): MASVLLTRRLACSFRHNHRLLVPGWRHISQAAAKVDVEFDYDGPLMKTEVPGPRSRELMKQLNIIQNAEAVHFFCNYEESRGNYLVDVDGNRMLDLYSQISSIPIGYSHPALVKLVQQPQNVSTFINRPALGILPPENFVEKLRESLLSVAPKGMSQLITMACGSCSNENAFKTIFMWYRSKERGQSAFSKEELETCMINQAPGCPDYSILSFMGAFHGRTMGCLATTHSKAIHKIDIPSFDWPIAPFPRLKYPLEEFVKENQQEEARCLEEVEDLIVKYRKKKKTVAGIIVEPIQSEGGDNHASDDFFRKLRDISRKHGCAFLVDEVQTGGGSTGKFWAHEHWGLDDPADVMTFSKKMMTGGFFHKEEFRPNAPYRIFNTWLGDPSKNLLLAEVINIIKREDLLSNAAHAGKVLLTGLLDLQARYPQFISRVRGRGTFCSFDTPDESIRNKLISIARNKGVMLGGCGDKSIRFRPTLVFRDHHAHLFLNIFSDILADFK

[2] = target: 4-aminobutyrate aminotransferase, mitochondrial (Sus scrofa) (UniProt P80147); experiment: Inhibitory rate constant against Gamma-amino-N-butyrate transaminase
4-aminobutyrate aminotransferase, mitochondrial (Sus scrofa), sequence (P80147 whole entry): as above

[3] = target: 4-aminobutyrate aminotransferase, mitochondrial (Sus scrofa) (UniProt P80147); experiment: The Reactivation Kinetic Constant for Gamma-amino-N-butyrate transaminase
[4] = target: T1, 4-aminobutyrate aminotransferase, mitochondrial; experiment: Inhibitory activity against Gamma-amino-N-butyrate transaminase
[5] = target: 4-aminobutyrate aminotransferase, mitochondrial (Sus scrofa) (UniProt P80147); experiment: Dissociation constant of the Gamma-amino-N-butyrate transaminase

SMILES: CNN [METHYLHYDRAZINE]
Kd [1]: 2800 nM
K3 [2]: 34.7 M⁻¹ s⁻¹
Kreact [3]: 4 min⁻¹
Ki [4]: 2200 nM
K4 [5]: 0.0046 min⁻¹

SMILES: NNCc1cccc(O)c1 [3-HYDROXYBENZYLHYDRAZINE DIHYDROCHLORIDE]
Kd [1]: 460 nM
K3 [2]: 330 M⁻¹ s⁻¹
Kreact [3]: 0.02 min⁻¹
Ki [4]: 300 nM
K4 [5]: 0.005 min⁻¹

Kd [1]: < 20 nM
Kreact [3]: 0.0069 min⁻¹
SMILES: NNCCC(=O)O
